Results taken from patent publication US20180036289A1 (Gilead Sciences, Inc., priority 2016, published 2018).

What was measured:
Test in all cases: Cell proliferation assay (ATPlite), drug with vs without cobicistat
Type in all cases: cell-based
786-O = 786-O cell line; 120 hours incubation
Procedure: (§1) All cell lines were obtained from the American Type Culture Collection (ATCC) Manassas, Va. (US). Master and working cell banks (MCB and WCB) were prepared by subculturing in ATCC-recommended media and freezing protocols (www.atcc.org). Cell line stocks for the assays were prepared from the WCB. The MCB, WCBs and assay stocks were prepared within respectively 3, 6 and 9 passages of the ATCC vial.
(§2) Solid powders of reference compounds were weighed on a calibrated balance and dissolved in 100% DMSO. DMSO samples were stored at room temperature. At the day of the experiment, the compound stock was diluted in 3.16 fold steps in 100% DMSO to obtain a 9-point dilution series. This was further diluted 31.6 times in 20 mM sterile Hepes buffer pH 7.4. A volume of 5 μl was transferred to the cells to generate a test concentration range from 3.16×10^−5M to 3.16×10^−9 M in duplicate. The final DMSO concentration during incubation was […] in all wells.
(§3) An assay stock was thawed and diluted in its ATCC recommended medium and dispensed in a 384-well plate, depending on the cell line used, at a concentration of 200-3200 cells per well in 45 μl medium. For each used cell line the optimal cell density is used. The margins of the plate were filled with phosphate-buffered saline. Plated cells were incubated in a humidified atmosphere of 5% CO2 at 37° C. After 24 hours, 5 μl of compound dilution was added and plates were further incubated for another 120 hours. After 120 hours, 25 μl of ATPlite 1Step™ (PerkinElmer) solution was added to each well, and subsequently shaken for 2 minutes. After 10 minutes of incubation in the dark, the luminescence was recorded on an Envision multimode reader (PerkinElmer).
(§4) IC50s were calculated by non-linear regression using IDBS XLfit 5. The percentage growth after 120 h (%-growth) was calculated as follows: 100%×(luminescencet=120h/luminescenceuntreated,t=120h). This was fitted to the ^10log compound concentration (conc) by a 4-parameter logistics curve: %−growth=bottom+(top−bottom)/(1+10^(log IC50-conc)*hill)), where hill is the Hill-coefficient, and bottom and top the asymptotic minimum and maximum cell growth that the compound allows in that assay.

DoTc2 4510 = DoTc2 4510 cell line; 120 hours incubation
Procedure: as §1, §2, §3, §4

769-P = 769-P cell line; 120 hours incubation
Procedure: as §1, §2, §3, §4

BT-20 = BT-20 cell line; 120 hours incubation
Procedure: as §1, §2, §3, §4

BxPC-3 = BxPC-3 cell line; 120 hours incubation
Procedure: as §1, §2, §3, §4

SJCRH30 = SJCRH30 cell line; 120 hours incubation
Procedure: as §1, §2, §3, §4

MCF7 = MCF7 cell line; 120 hours incubation
Procedure: as §1, §2, §3, §4

A-172 = A-172 cell line; 120 hours incubation
Procedure: as §1, §2, §3, §4

HCT-15 = HCT-15 cell line; 120 hours incubation
Procedure: as §1, §2, §3, §4

SW948 = SW948 cell line; 120 hours incubation
Procedure: as §1, §2, §3, §4

A388 = A388 cell line; 120 hours incubation
Procedure: as §1, §2, §3, §4

FaDu = FaDu cell line; 120 hours incubation
Procedure: as §1, §2, §3, §4

SW48 = SW48 cell line; 120 hours incubation
Procedure: as §1, §2, §3, §4

COLO 205 = COLO 205 cell line; 120 hours incubation
Procedure: as §1, §2, §3, §4

SW620 = SW620 cell line; 120 hours incubation
Procedure: as §1, §2, §3, §4

Daoy = Daoy cell line; 120 hours incubation
Procedure: as §1, §2, §3, §4

MOLT-4 = MOLT-4 cell line; 120 hours incubation
Procedure: as §1, §2, §3, §4

ACHN = ACHN cell line; 120 hours incubation
Procedure: as §1, §2, §3, §4

SK-N-AS = SK-N-AS cell line; 120 hours incubation
Procedure: as §1, §2, §3, §4

SUP-T1 = SUP-T1 cell line; 120 hours incubation
Procedure: as §1, §2, §3, §4

HCT 116 = HCT 116 cell line; 120 hours incubation
Procedure: as §1, §2, §3, §4

A375 = A375 cell line; 120 hours incubation
Procedure: as §1, §2, §3, §4

DU 145 = DU 145 cell line; 120 hours incubation
Procedure: as §1, §2, §3, §4

MG-63 = MG-63 cell line; 120 hours incubation
Procedure: as §1, §2, §3, §4

SW480 = SW480 cell line; 120 hours incubation
Procedure: as §1, §2, §3, §4

T24 = T24 cell line; 120 hours incubation
Procedure: as §1, §2, §3, §4

SNU-C2B = SNU-C2B cell line; 120 hours incubation
Procedure: as §1, §2, §3, §4

SR = SR cell line; 120 hours incubation
Procedure: as §1, §2, §3, §4

J82 = J82 cell line; 120 hours incubation
Procedure: as §1, §2, §3, §4

VA-ES-BJ = VA-ES-BJ cell line; 120 hours incubation
Procedure: as §1, §2, §3, §4

CC(=O)O[C@@]12CO[C@@H]1C[C@H](O)[C@@]1(C)C(=O)[C@H](O)C3=C(C)[C@@H](OC(=O)[C@H](O)[C@@H](NC(=O)OC(C)(C)C)c4ccccc4)C[C@@](O)([C@@H](OC(=O)c4ccccc4)[C@H]21)C3(C)C [docetaxel]
Fold change in IC50 (IC50 [Drug + Cobicistat]/IC50 [Drug]) (786-O): 4.2 fold
Fold change in IC50 (IC50 [Drug + Cobicistat]/IC50 [Drug]) (DoTc2 4510): 5.3 fold
Fold change in IC50 (IC50 [Drug + Cobicistat]/IC50 [Drug]) (769-P): 3.0 fold
Fold change in IC50 (IC50 [Drug + Cobicistat]/IC50 [Drug]) (BT-20): 1.7 fold
Fold change in IC50 (IC50 [Drug + Cobicistat]/IC50 [Drug]) (BxPC-3): 3.0 fold
Fold change in IC50 (IC50 [Drug + Cobicistat]/IC50 [Drug]) (SJCRH30): 4.1 fold
Fold change in IC50 (IC50 [Drug + Cobicistat]/IC50 [Drug]) (MCF7): 4.1 fold
Fold change in IC50 (IC50 [Drug + Cobicistat]/IC50 [Drug]) (A-172): 2.0 fold
Fold change in IC50 (IC50 [Drug + Cobicistat]/IC50 [Drug]) (HCT-15): 2.8 fold
Fold change in IC50 (IC50 [Drug + Cobicistat]/IC50 [Drug]) (SW948): 3.5 fold
Fold change in IC50 (IC50 [Drug + Cobicistat]/IC50 [Drug]) (A388): 6.0 fold
Fold change in IC50 (IC50 [Drug + Cobicistat]/IC50 [Drug]) (FaDu): 1.7 fold
Fold change in IC50 (IC50 [Drug + Cobicistat]/IC50 [Drug]) (SW48): 1.6 fold
Fold change in IC50 (IC50 [Drug + Cobicistat]/IC50 [Drug]) (COLO 205): 3.9 fold
Fold change in IC50 (IC50 [Drug + Cobicistat]/IC50 [Drug]) (SW620): 2.7 fold
Fold change in IC50 (IC50 [Drug + Cobicistat]/IC50 [Drug]) (Daoy): 6.4 fold
Fold change in IC50 (IC50 [Drug + Cobicistat]/IC50 [Drug]) (MOLT-4): 1.7 fold
Fold change in IC50 (IC50 [Drug + Cobicistat]/IC50 [Drug]) (ACHN): 4.6 fold
Fold change in IC50 (IC50 [Drug + Cobicistat]/IC50 [Drug]) (SK-N-AS): 3.3 fold
Fold change in IC50 (IC50 [Drug + Cobicistat]/IC50 [Drug]) (SUP-T1): 4.5 fold
Fold change in IC50 (IC50 [Drug + Cobicistat]/IC50 [Drug]) (HCT 116): 1.9 fold
Fold change in IC50 (IC50 [Drug + Cobicistat]/IC50 [Drug]) (A375): 2.8 fold
Fold change in IC50 (IC50 [Drug + Cobicistat]/IC50 [Drug]) (DU 145): 4.8 fold
Fold change in IC50 (IC50 [Drug + Cobicistat]/IC50 [Drug]) (MG-63): 3.3 fold
Fold change in IC50 (IC50 [Drug + Cobicistat]/IC50 [Drug]) (SW480): 2.3 fold
Fold change in IC50 (IC50 [Drug + Cobicistat]/IC50 [Drug]) (T24): 6.3 fold
Fold change in IC50 (IC50 [Drug + Cobicistat]/IC50 [Drug]) (SNU-C2B): 4.8 fold
Fold change in IC50 (IC50 [Drug + Cobicistat]/IC50 [Drug]) (SR): 3.6 fold
Fold change in IC50 (IC50 [Drug + Cobicistat]/IC50 [Drug]) (J82): 3.5 fold
Fold change in IC50 (IC50 [Drug + Cobicistat]/IC50 [Drug]) (VA-ES-BJ): 5.0 fold
